Measurements reported in patent US10646489B2, “Compositions and methods for increasing energy metabolism” (NuSirt Sciences, Inc., priority 2012, dated 2020).

Tests used:
3T3-L1 adipocytes [1] = assay: Fatty acid oxidation in 3T3-L1 adipocytes / adipocytes; format: cell-based; conditions: p<0.05
Excerpt: (§1) Data expressed as % change from control value.*p<0.05. The output of the pathways can be measured using one or more methods, disclosed herein and/or known in the art. […] Mitochondrial biogenesis can be measured using a mitochondrial probe by using fluorescence. AMPK activity can be determined by measuring AMPK phosphorylation via an ELISA assay or by Western blot. Sirt1 activity can be determined by measuring deacetylation of a substrate, which can be detected using a fluorophore. […] Treatment with 0.5 mM leucine corresponds to a circulating level of the same molarity achieved by administering about 1,125 mg of dietary leucine to a human subject. Treatment with 0.25 mM leucine corresponds to a circulating level of the same molarity achieved by administering about 300 mg of dietary leucine to a human subject.

[2] = Dose-response of the PDE inhibitor alone (concentration without effect); format: cell-based
Method: (§2) Vinopocetine, which is a PDE 1 inhibitor, was tested in combination with leucine, HMB, and resveratrol for its effects on energy metabolism.
(§3) Two PDE 3 inhibitors were studied, amrinone and cilostamide, in combination with leucine and HMB for their effects on energy metabolism.
Two PDE 4 inhibitors were studied, rolipram and YM796, in combination with leucine and HMB for their effects on energy metabolism.
(§4) Icariin is a naturally occurring flavonol with significant PDE 5 inhibitory activity.

[3] = Synergy on energy metabolism (fat oxidation, glucose utilization), cell type not stated; format: cell-based
Method: as §2, §3, §4

3T3-L1 adipocytes [4] = assay: Glucose utilization (extracellular acidification response to glucose injection) in 3T3-L1 adipocytes / adipocytes; format: cell-based
Method: (§5) Glucose utilization was measured as extracellular acidification response to glucose injection. *p=0.05. […] Treatment with 0.5 mM leucine corresponds to a circulating level of the same molarity achieved by administering about 1,125 mg of dietary leucine to a human subject. Treatment with 0.25 mM leucine corresponds to a circulating level of the same molarity achieved by administering about 300 mg of dietary leucine to a human subject.

C2C12 myotubes [5] = assay: Fatty acid oxidation (O2 consumption response to palmitate injection) in C2C12 myotubes / muscle cells; format: cell-based; conditions: for increase in myotube fat oxidation, with HMB: PDE 5 inhibitor 1 nM with HMB (5 μM); for increase in myotube fat oxidation, with leucine: PDE 5 inhibitor 1 nM with leucine (0.5 mM); for increase in myotube fat oxidation, with resveratrol: PDE 5 inhibitor 1 nM with resveratrol (200 nM)
Method: as §1, with “Fatty acid oxidation was measured as O2 consumption response to palmitate injection and is expressed as % change from pre-injection baseline. […] Data” for “Data”, “value. *p=0.013; **p=0.015.” for “value.*p<0.05.”

C2C12 myotubes [6] = assay: Nitric oxide production in C2C12 myotubes; format: cell-based; conditions: HMB or resveratrol, each, p<0.0001
Method: Treatment with 0.5 mM leucine corresponds to a circulating level of the same molarity achieved by administering about 1,125 mg of dietary leucine to a human subject. Treatment with 0.25 mM leucine corresponds to a circulating level of the same molarity achieved by administering about 300 mg of dietary leucine to a human subject.

C2C12 myotubes [7] = assay: Mitochondrial biogenesis measured as mitochondrial mass in C2C12 myotubes; format: cell-based
Method: as §1, with “The” for “Data expressed as % change from control value.*p<0.05. The”

[8] = 25 mg/kg diet; ~4 mg/kg body weight; previous published studies; cited from earlier work
[9] = Substitution of leucine by other branched chain amino acids in the synergy with a PDE5 inhibitor
Excerpt: Branched chain amino acids that can be combined with a PDE-5 inhibitor have aliphatic side chains with a branch carbon atom that is bound to two or more other atoms. The other atoms may be carbon atoms. Examples of branched chain amino acids include leucine, isoleucine, and valine. Branched chain amino acids may also include other compounds, such as 4-hydroxyisoleucine. In some embodiments, the compositions are substantially free of one or more, or all of non-branched chain amino acids. In some embodiments, the compositions are substantially free of one or more, or all of non-branched chain amino acids in free amino acid form. For example, the compositions can be substantially free of […], and/or tyrosine. The compositions can be substantially free of […], and/or tyrosine in free amino acid form. In some embodiments, the branched chain amino acid is leucine. In some embodiments, the compositions may be substantially free of isoleucine and/or valine, which may be in free form. The synergistic effects between leucine and a PDE5 inhibitor, as described herein, are not observed when leucine is substituted with isoleucine and valine. Not wishing to be bound by any particular theory, isoleucine, valine, and leucine compete with each other for transport and/or absorption, and inclusion of isoleucine and valine in a composition would reduce the efficacy of any leucine in the composition. […]

C2C12 myotubes [10] = assay: Glucose utilization (extracellular acidification response to glucose injection) in C2C12 myotubes / muscle cells; format: cell-based
Method: as §5, with “*p=0.04.” for “*p=0.05.”

AMPK [11] = assay: AMPK activity / phosphorylation in muscle cells; format: cell-based
Excerpt: (§6) The output of the pathways can be measured using one or more methods, disclosed herein and/or known in the art. For example, fatty acid oxidation can be determined by measuring oxygen consumption, or 3H-labeled palmitate oxidation. Mitochondrial biogenesis can be measured using a mitochondrial probe by using fluorescence. AMPK activity can be determined by measuring AMPK phosphorylation via an ELISA assay or by Western blot. Sirt1 activity can be determined by measuring deacetylation of a substrate, which can be detected using a fluorophore.
(§7) Two PDE 4 inhibitors were studied, rolipram and YM796, in combination with leucine and HMB for their effects on energy metabolism. Dose-response indicate concentrations of 0.1 nM or below of rolipram and YM796 exert no effect; accordingly, this was the concentration used in these experiments. […] However, no synergy was found for glucose utilization or AMPK activation.

AMPK [12] = assay: AMPK activation in adipocytes; format: cell-based; conditions: rolipram 0.1 nM combinations
Excerpt: as §6, §7

diet-induced obese mouse = assay: Post-prandial glucose, insulin and HOMAIR in the diet-induced obese mouse; format: in vivo; conditions: 14-day treatment
Method: The interactive effects of icariin, a flavanol with specific PDE5 inhibitory properties, on glycemia and insulin sensitivity were assessed in the diet-induced obese mouse, which can be used as a murine model of type 2 diabetes. Male C57/BL6 mice were placed on standard low-fat chow (control; 10% energy from fat) or high fat (60% energy from fat, Research Diets # D12492, Research Diets, Inc, New Brunswick, N.J.) at six weeks of age to induce insulin resistance. […], with 10 animals per group: Low fat diet (LFD) control; High fat diet (HFD) control; HFD+leucine (24 g/kg diet, a two-fold increase over control levels)1 HFD+leucine (24 g/kg diet)+icariin (25 mg/kg diet). […] Mice were fasted overnight (˜16 hours) prior to measurement of fasting blood glucose, insulin and glucose tolerance. Glucose tolerance was determined following measurement of fasting glucose via intraperitoneal administration of glucose (1.2 g/kg body weight) followed by blood glucose measurement at 15, 30, 60, 90 and 120 minutes. Post-prandial glucose was measured within one hour of cessation of eating. Insulin tolerance was measured via an insulin tolerance test (ITT). Food was removed 4-6 hours prior to ITT, and baseline blood glucose measured. The mice were then injected intraperitoneally with insulin (1.2 U/kg body weight) and blood glucose was measured 15, 30, 60, 90 and 120 minutes following insulin injection. The homeostasis model assessment of insulin resistance (HOMAIR) was used as a screening index of changes in insulin sensitivity. HOMAIR is calculated via standard formula from fasting plasma insulin and glucose as follows: HOMAIR=[Insulin (uU/mL)×glucose (mM)]/22.5. The plasma glucose and insulin concentrations were measured using the Glucose Assay Kit from Biovision (Milpitas, Calif.) and the Insulin kit from Millipore (Billerica, Mass.), respectively. CRP levels in plasma were determined by ELISA (CRP: Life Diagnostics, West Chester, Pa.).

[13] = vinpocetine 0.1 nM with either leucine (0.5 mM) or HMB (5 μM)

## CC(C)(O)CC(=O)O [HMB, beta-hydroxymethylbutyrate]
3T3-L1 adipocytes [1]; 3T3-L1 adipocytes, leucine 0.5 mM or HMB 5 μM alone
  fatty acid oxidation, agent alone: 29%

## CCOC(=O)C1=C[C@]2(CC)CCCN3CCc4c(n1c1ccccc41)[C@@H]32 [Vinpocetine]
[2]
  concentration that exerts no effect (dose-response): ≤ 0.1 nM
[3]; [13]
  synergy with respect to fat oxidation: no synergy
  synergy with respect to glucose utilization: no synergy
3T3-L1 adipocytes [4]; adipocytes, vinpocetine 0.1 nM with low-dose resveratrol (200 nM), p=0.03
  increase in glucose utilization: 70%

## Nc1cc(-c2ccncc2)c[nH]c1=O [amrinone]
[3]; amrinone 10 nM
  synergy with either leucine or HMB (energy metabolism): no significant synergy

## CN(C(=O)CCCOc1ccc2[nH]c(=O)ccc2c1)C1CCCCC1 [cilostamide]
C2C12 myotubes [5]; muscle cells, cilostamide 10 nM combined with either leucine (0.5 mM) or HMB (5 μM), p<0.05
  increase in fat oxidation: 92%
3T3-L1 adipocytes [1]; adipocytes, cilostamide 10 nM combined with either leucine (0.5 mM) or HMB (5 μM)
  increase in fat oxidation: 58%

## COc1ccc(-c2oc3c(CC=C(C)C)c(O[C@@H]4O[C@H](CO)[C@@H](O)[C@H](O)[C@H]4O)cc(O)c3c(=O)c2O[C@@H]2O[C@@H](C)[C@H](O)[C@@H](O)[C@H]2O)cc1 [icariin]
[2]
  concentration that exerts no effect (dose-response): below 1 nM
[3]; icariin 1 nM
  synergy with respect to glucose utilization: did not exhibit significant synergy
C2C12 myotubes [5]; C2C12 myotubes
  increase in myotube fat oxidation, with HMB: 75%
  increase in myotube fat oxidation, with leucine: 77%
  increase in myotube fat oxidation, with resveratrol: 157%
C2C12 myotubes [6]; icariin with leucine
  effect on nitric oxide production: modest, significant effects
C2C12 myotubes [7]; icariin 1 nM, FIG. 13, p<0.001
  synergy with both leucine and HMB to up regulate mitochondrial biogenesis: significant synergy
[8]
  effect of the selected level: no effect

## CC[C@H](C)[C@H](N)C(=O)O [isoleucine]
[9]
  synergistic effects with a PDE5 inhibitor when substituted for leucine: not observed

## Oc1ccc(/C=C/c2cc(O)cc(O)c2)cc1 [resveratrol, 3,5,4′-Trihydroxy-trans-stilbene]
C2C12 myotubes [7]; FIG. 12
  effect of resveratrol on the sildenafil interaction (mitochondrial biomass): no significant effect
C2C12 myotubes [7]; FIG. 13
  interaction of resveratrol with icariin (mitochondrial biogenesis): did not exhibit a significant interaction

## COc1ccc(C2CNC(=O)C2)cc1OC1CCCC1 (stereo not drawn) [rolipram]
C2C12 myotubes [5]; muscle cells, rolipram 0.1 nM
  synergistic effect with leucine, HMB or resveratrol with respect to fat oxidation: no synergistic effect
C2C12 myotubes [10]; muscle cells, rolipram 0.1 nM
  synergistic effect with leucine, HMB or resveratrol with respect to glucose utilization: no synergistic effect
3T3-L1 adipocytes [4]; adipocytes, rolipram 0.1 nM combinations
  synergy for glucose utilization: no synergy
AMPK [11]; muscle cells, rolipram 0.1 nM
  synergistic effect with leucine, HMB or resveratrol with respect to AMPK activity: no synergistic effect
AMPK [11]; rolipram alone, not augmented by leucine or HMB
  AMPK phosphorylation: activated
AMPK [12]
  synergy for AMPK activation: no synergy

## CCCc1nn(C)c2c(=O)[nH]c(-c3cc(S(=O)(=O)N4CCN(C)CC4)ccc3OCC)nc12 [sildenafil]
[2]
  concentration that exerts no effect (dose-response): below 1 nM
C2C12 myotubes [5]; C2C12 myotubes
  increase in myotube fat oxidation, with HMB: 203%
  increase in myotube fat oxidation, with leucine: 232%
  increase in myotube fat oxidation, with resveratrol: no interaction
C2C12 myotubes [5]; C2C12 myotubes, sildenafil 1 nM (change from baseline) or leucine 0.5 mM alone
  fatty acid oxidation, agent alone: about 50%
C2C12 myotubes [10]; C2C12 myotubes, sildenafil 1 nM with resveratrol 200 nM, p=0.04
  augmentation of myotube glucose utilization, with resveratrol: 53%
3T3-L1 adipocytes [4]; 3T3-L1 adipocytes
  synergy of HMB or resveratrol with sildenafil on glucose utilization: neither HMB nor resveratrol exerted any significant synergy
C2C12 myotubes [6]; sildenafil (1 nM) with leucine
  increase in nitric oxide production: 15-30%

## CC(C)[C@H](N)C(=O)O [valine]
[9]
  synergistic effects with a PDE5 inhibitor when substituted for leucine: not observed

## insulin
diet-induced obese mouse
  decrease in HOMAIR vs. untreated HFD mice: ~40%
  decrease in circulating (post-prandial) insulin vs. untreated HFD mice: ~30%
